Measured values: US20260184710A1, “CASITAS B-LINEAGE LYMPHOMA PROTOONCOGENE B (CBL-B) DEGRADING COMPOUNDS AND ASSOCIATED METHODS OF USE” (Arvinas Operations, Inc., priority 2022, published 2026)

Target: T1, Cbl-b (Homo sapiens, UniProt Q13191)
T1 construct: Cbl-b-HiBit KI Jurkat Cells were purchased from Promega; host or cells: Cbl-b-HiBiT knock-in Jurkat cells
Assay: Cbl-b Degradation Method B (Nano-Glo HiBiT lytic detection)
Assay type: cell-based
Details: Cbl-b-HiBit KI Jurkat Cells, incubated at least 6-24 hours; for DC50: half maximal degradation, read-out: Cbl-b Degredation Method B IC50; for Dmax: maximum degradation observed, read-out: Cbl-b Degredation Method B Dmax (%)
Protocol: Cbl-b Degradation Method B [table] Cbl-b-HiBit KI Jurkat Cells were purchased from Promega, and cell media consisted of RPMI 1640 with 10% […] and 1% pen/strep. The cells were counted, measured for viability, and 35 μL of the cell solution was seeded into 384 well flat bottom plates at a ratio of 20,000 cells per 35 μL. After which, the plates were incubated for ˜24 hours at 37° C. and 5% CO2. Compounds were ordered from Evotec in a 384 well plate at a 1 mM top concentration in DMSO and serially diluted 1:3 in DMSO for an 11-point dose response. Using the Bravo instrument, 1 uL of compound solution or DMSO was transferred to 125 uL of media. Each well was treated with 5 μL of compound plus media mixture or DMO and subsequently incubated for at least 6-24 hours at 37° C. and 5% CO2. After incubation, 30 μL of either NanoGlo media was added to each cell, and the plates read on the Synergy Neo2 machine. The concentration of an exemplary compound that leads to half maximal degradation (DC50) as well as the maximum degradation observed (Dmax, conventionally expressed as a percentage of control) is shown below in Table 2.

T1 sequence (Q13191 whole entry): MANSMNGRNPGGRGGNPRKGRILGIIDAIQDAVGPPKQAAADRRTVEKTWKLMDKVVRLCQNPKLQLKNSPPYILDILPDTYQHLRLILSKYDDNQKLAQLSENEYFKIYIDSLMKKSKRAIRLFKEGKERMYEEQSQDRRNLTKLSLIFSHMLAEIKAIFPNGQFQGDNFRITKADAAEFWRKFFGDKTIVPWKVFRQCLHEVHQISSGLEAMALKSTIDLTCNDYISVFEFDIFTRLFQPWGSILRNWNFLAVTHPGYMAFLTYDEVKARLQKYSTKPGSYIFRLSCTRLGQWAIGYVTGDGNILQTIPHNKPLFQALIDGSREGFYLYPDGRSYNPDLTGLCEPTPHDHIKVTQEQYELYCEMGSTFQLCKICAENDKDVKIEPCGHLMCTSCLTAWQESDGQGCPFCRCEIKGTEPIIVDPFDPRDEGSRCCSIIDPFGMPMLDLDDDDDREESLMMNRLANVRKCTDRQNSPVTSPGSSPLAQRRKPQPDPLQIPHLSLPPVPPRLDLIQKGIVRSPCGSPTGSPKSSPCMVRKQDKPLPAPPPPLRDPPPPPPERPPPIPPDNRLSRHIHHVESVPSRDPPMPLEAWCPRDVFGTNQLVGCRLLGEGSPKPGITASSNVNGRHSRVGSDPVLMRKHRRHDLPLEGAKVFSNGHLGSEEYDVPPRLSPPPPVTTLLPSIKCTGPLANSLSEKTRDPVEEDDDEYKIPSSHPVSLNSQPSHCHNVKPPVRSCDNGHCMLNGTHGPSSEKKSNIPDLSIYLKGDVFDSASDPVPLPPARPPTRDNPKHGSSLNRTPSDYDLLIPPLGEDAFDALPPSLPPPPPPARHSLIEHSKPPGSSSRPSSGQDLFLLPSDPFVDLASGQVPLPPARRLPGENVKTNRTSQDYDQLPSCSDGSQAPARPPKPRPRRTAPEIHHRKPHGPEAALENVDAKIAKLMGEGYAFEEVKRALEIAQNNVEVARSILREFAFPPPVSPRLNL

| Compound | DC50 | Dmax |
| --- | --- | --- |
| Cn1cnnc1CC1(c2cccc(-n3cc4c(C(F)(F)F)cc(CN5CCC[C@@H](CN6CCC(CN7CCN(c8ccc9c(c8F)CN(C8CCC(=O)NC8=O)C9=O)CC7)CC6)C5)cc4n3)c2)COC1 (stereo partly drawn) [Example 298, 3-(4-fluoro-5-{4-[(1-{[(3S)-1-{[2-(3-{3-[(4-methyl-4H-1,2,4-triazol-3-yl)methyl]oxetan-3-yl}phenyl)-4-(trifluoromethyl)-2H-indazol-6-yl]methyl}piperidin-3-yl]methyl}piperidin-4-yl)methyl]piperazin-1-yl}-1-oxo-2,3-dihydro-1H-isoindol-2-yl)piperidine-2,6-dione] | > 0.5 µM |  |
| CC1c2nc(N3CCC(O[C@H]4CC[C@H](CN5CCN(Cc6cc(C(F)(F)F)c7cn(-c8cccc(C9(Cc%10nncn%10C)COC9)c8)nc7c6)CC5)CC4)CC3)ccc2C(=O)N1C1CCC(=O)NC1=O (stereo partly drawn) [Example 216, 3-[7-methyl-5-oxo-2-(4-{[(1r,4r)-4-[(4-{[2-(3-{3-[(4-methyl-4H-1,2,4-triazol-3-yl)methyl]oxetan-3-yl}phenyl)-4-(trifluoromethyl)-2H-indazol-6-yl]methyl}piperazin-1-yl)methyl]cyclohexyl]oxy}piperidin-1-yl)-5H,6H,7H-pyrrolo[3,4-b]pyridin-6-yl]piperidine-2,6-dione] | < 0.005 µM | < 35% |
| Cn1cnnc1CC1(c2cccc(N3Cc4c(cc(CNC5CC(Oc6ccc7c(c6)C(=O)N(C6CCC(=O)NC6=O)C7=O)C5)cc4C(F)(F)F)C3=O)c2)COC1 (stereo not drawn) [Example 37, 2-(2,6-dioxopiperidin-3-yl)-5-[3-({[2-(3-{3-[(4-methyl-4H-1,2,4-triazol-3-yl)methyl]oxetan-3-yl}phenyl)-3-oxo-7-(trifluoromethyl)-2,3-dihydro-1H-isoindol-5-yl]methyl}amino)cyclobutoxy]-2,3-dihydro-1H-isoindole-1,3-dione] | > 0.5 µM |  |
| COc1c(N2CCC(OC3CCC4(CC3)CN(c3cc5c(c(C(F)(F)F)c3)CN(c3cccc(C6(Cc7nncn7C)COC6)c3)C5=O)C4)CC2)ccc2c1CN(C1CCC(=O)NC1=O)C2=O (stereo not drawn) [Example 149, 3-[4-methoxy-5-[4-[[2-[2-[3-[3-[(4-methyl-1,2,4-triazol-3-yl)methyl]oxetan-3-yl]phenyl]-3-oxo-7-(trifluoromethyl)isoindolin-5-yl]-2-azaspiro[3.5]nonan-7-yl]oxy]-1-piperidyl]-1-oxo-isoindolin-2-yl]piperidine-2,6-dione] | 0.005 to 0.05 µM | 35 to 70% |
| Cn1cnnc1CC1(c2cccc(N3Cc4c(cc(CN5CCC[C@H](CN6CC[C@@H](OC7CCN(c8ccc9c(c8F)CN(C8CCC(=O)NC8=O)C9=O)CC7)CC6(C)C)C5)cc4C(F)(F)F)C3=O)c2)CC(C#N)C1 (single isomer, unassigned) [Example 291, (1r**,3r**)-3-[3-(6-{[(3S)-3-{[(4R*)-4-({1-[2-(2,6-dioxopiperidin-3-yl)-4-fluoro-1-oxo-2,3-dihydro-1H-isoindol-5-yl]piperidin-4-yl}oxy)-2,2-dimethylpiperidin-1-yl]methyl}piperidin-1-yl]methyl}-1-oxo-4-(trifluoromethyl)-2,3-dihydro-1H-isoindol-2-yl)phenyl]-3-[(4-methyl-4H-1,2,4-triazol-3-yl)methyl]cyclobutane-1-carbonitrile] | > 0.5 µM |  |
| CC1c2nc(N3CCC(OC4CCC(CN5[C@H](C)CN(Cc6cc7c(c(C(F)(F)F)c6)CN(c6cccc(C8(Cc9nncn9C)COC8)c6)C7=O)C[C@@H]5C)CC4)CC3)ccc2C(=O)N1C1CCC(=O)NC1=O (stereo partly drawn) [Example 243, 3-[7-methyl-5-oxo-2-(4-{[(1rs,4rs)-4-{[(2R,6S)-2,6-dimethyl-4-{[2-(3-{3-[(4-methyl-4H-1,2,4-triazol-3-yl)methyl]oxetan-3-yl}phenyl)-3-oxo-7-(trifluoromethyl)-2,3-dihydro-1H-isoindol-5-yl]methyl}piperazin-1-yl]methyl}cyclohexyl]oxy}piperidin-1-yl)-5H,6H,7H-pyrrolo[3,4-b]pyridin-6-yl]piperidine-2,6-dione] | < 0.005 µM | > 70% |
| CC1c2nc(N3CCC(O[C@H]4CC[C@@H](CN5C[C@@H]6C[C@H]5CN6Cc5cc6c(c(C(F)(F)F)c5)CN(c5cccc(C7(Cc8nncn8C)CC7)c5)C6=O)CC4)CC3)ccc2C(=O)N1C1CCC(=O)NC1=O (stereo partly drawn) [Example 218, 3-[7-methyl-5-oxo-2-(4-{[(1r,4r)-4-{[(1S,4S)-5-{[2-(3-{1-[(4-methyl-4H-1,2,4-triazol-3-yl)methyl]cyclopropyl}phenyl)-3-oxo-7-(trifluoromethyl)-2,3-dihydro-1H-isoindol-5-yl]methyl}-2,5-diazabicyclo[2.2.1]heptan-2-yl]methyl}cyclohexyl]oxy}piperidin-1-yl)-5H,6H,7H-pyrrolo[3,4-b]pyridin-6-yl]piperidine-2,6-dione] | 0.005 to 0.05 µM | 35 to 70% |
| Cn1cnnc1CC1(c2cccc(-n3cc4c(C(F)(F)F)cc(CN5CCC[C@H](CN6CCN(CC7CCN(c8ccc9c(c8F)CN(C8CCC(=O)NC8=O)C9=O)CC7)CC6(C)C)C5)cc4n3)c2)COC1 (stereo partly drawn) [Example 285, 3-(5-{4-[(3,3-dimethyl-4-{[(3S)-1-{[2-(3-{3-[(4-methyl-4H-1,2,4-triazol-3-yl)methyl]oxetan-3-yl}phenyl)-4-(trifluoromethyl)-2H-indazol-6-yl]methyl}piperidin-3-yl]methyl}piperazin-1-yl)methyl]piperidin-1-yl}-4-fluoro-1-oxo-2,3-dihydro-1H-isoindol-2-yl)piperidine-2,6-dione] | > 0.5 µM |  |

Next, values leading:

| DC50 | Dmax | Compound |
| --- | --- | --- |
| < 0.005 µM | > 70% | CC(C)n1c(=O)n(C2CCC(=O)NC2=O)c2ccc(N3CCC(O[C@H]4CC[C@H](CN5CCN(Cc6cc7c(c(C(F)(F)F)c6)CN(c6cccc([C@]8(Cc9nncn9C)C[C@@H](C#N)C8)c6)C7=O)CC5)CC4)CC3)cc21 (stereo partly drawn) [Example 228, (1r,3r)-3-[(4-methyl-4H-1,2,4-triazol-3-yl)methyl]-3-(3-{1-oxo-6-[(4-{[(1r,4r)-4-({1-[1-(2,6-dioxopiperidin-3-yl)-2-oxo-3-(propan-2-yl)-2,3-dihydro-1H-1,3-benzodiazol-5-yl]piperidin-4-yl}oxy)cyclohexyl]methyl}piperazin-1-yl)methyl]-4-(trifluoromethyl)-2,3-dihydro-1H-isoindol-2-yl}phenyl)cyclobutane-1-carbonitrile] |
| 0.005 to 0.05 µM | 35 to 70% | CC1c2nc(N3CCC(O[C@H]4CC[C@H](CN5CCN(Cc6ccc7c(n6)C(=O)N(c6cccc(C8(Cc9nncn9C)COC8)c6)C7)CC5)CC4)CC3)ccc2C(=O)N1C1CCC(=O)NC1=O (stereo partly drawn) [Example 151, 3-[7-methyl-2-[4-[4-[[4-[[6-[3-[3-[(4-methyl-1,2,4-triazol-3-yl)methyl]oxetan-3-yl]phenyl]-7-oxo-5H-pyrrolo [3,4-b]pyridin-2-yl]methyl]piperazin-1-yl]methyl]cyclohexoxy]-1-piperidyl]-5-oxo-7H-pyrrolo [3,4-b]pyridin-6-yl]piperidine-2,6-dione] |
| > 0.5 µM |  | Cn1cnnc1CC1(c2cccc(-n3cc4c(C(F)(F)F)cc(CN5CCC(CN6CCC(CN7CCN(c8ccc9c(c8F)CN(C8CCC(=O)NC8=O)C9=O)CC7)CC6)CC5)cc4n3)c2)COC1 (stereo not drawn) [Example 299, 3-{4-fluoro-5-[4-({1-[(1-{[2-(3-{3-[(4-methyl-4H-1,2,4-triazol-3-yl)methyl]oxetan-3-yl}phenyl)-4-(trifluoromethyl)-2H-indazol-6-yl]methyl}piperidin-4-yl)methyl]piperidin-4-yl}methyl)piperazin-1-yl]-1-oxo-2,3-dihydro-1H-isoindol-2-yl}piperidine-2,6-dione] |
| < 0.005 µM | > 70% | Cn1cnnc1CC1(c2cccc(N3Cc4c(cc(CN5CCC[C@H](CN6CCN(C[C@H]7CC[C@@H](OC8CCN(c9ccc%10c(c9F)CN(C9CCC(=O)NC9=O)C%10=O)CC8)CC7)CC6(C)C)C5)cc4C(F)(F)F)C3=O)c2)CC1 (stereo partly drawn) [Example 264, 3-[4-fluoro-1-oxo-5-(4-{[(1r,4r)-4-[(3,3-dimethyl-4-{[(3S)-1-{[2-(3-{1-[(4-methyl-4H-1,2,4-triazol-3-yl)methyl]cyclopropyl}phenyl)-3-oxo-7-(trifluoromethyl)-2,3-dihydro-1H-isoindol-5-yl]methyl}piperidin-3-yl]methyl}piperazin-1-yl)methyl]cyclohexyl]oxy}piperidin-1-yl)-2,3-dihydro-1H-isoindol-2-yl]piperidine-2,6-dione] |
| 0.005 to 0.05 µM | < 35% | Cn1cnnc1C[C@]1(c2cccc(-n3cc4c(C(F)(F)F)cc(N5CC6(CCN(CC7CCN(c8ccc9c(c8Cl)CN(C8CCC(=O)NC8=O)C9=O)CC7)CC6)C5)cc4n3)c2)C[C@H](C#N)C1 (stereo partly drawn) [Example 262, (1r,3r)-3-(3-{6-[7-({1-[4-chloro-2-(2,6-dioxopiperidin-3-yl)-1-oxo-2,3-dihydro-1H-isoindol-5-yl]piperidin-4-yl}methyl)-2,7-diazaspiro[3.5]nonan-2-yl]-4-(trifluoromethyl)-2H-indazol-2-yl}phenyl)-3-[(4-methyl-4H-1,2,4-triazol-3-yl)methyl]cyclobutane-1-carbonitrile] |
